Assay results: patent US5859007A, “CCK or gastrin modulating benzo [b][1,4] diazepines derivatives” (Glaxo Wellcome Inc., priority 1994, dated 1999)

Test system: isolated guinea pig gallbladder
Test: Functional activity in isolated guinea pig gallbladder preparation
Format: cell-based
Conditions: Cavia porcellus, expressed as % CCK-induced maximal response; for activation at 1 µM: 1 × 10^-6 M test compound, read-out: %Contraction (1 × 10^-6 M); for activation at 30 µM: 3 × 10^-5 M test compound, read-out: % Contraction (3 × 10^-5 M)
Procedure: 3. GUINEA PIG GALL BLADDER ASSAY
Gallbladders are removed from guinea pigs sacrificed by cervical dislocation. The isolated gallbladders are cleaned of adherent connective tissue and cut into two rings from each animal (2-4 mm in length). The rings are subsequently suspended in organ chambers containing a physiological salt solution (118.4 mM NaCl, 4.7 mM KCl, 1.2 mM MgSO4, 2.5 mM CaCl2, 1.2 mM KH2 […], 25 mM NaHCO3, 11.1 mM dextrose). The bathing solution is maintained at 37° C. and aerated with 95% O2 /5% CO2. Tissues are connected via gold chains and stainless steel mounting wires to isometric force displacement transducers (Grass, Model FT03 D). Responses are then recorded on a polygraph (Grass, Model 7E).
Rings are gradually stretched (over a 120 min. period) to a basal resting tension of 1 gm which is maintained throughout the experiment. During the basal tension adjustment period, the rings are exposed to acetylcholine (10^-6 M) four times to verify tissue contractility. The tissues are then exposed to a submaximal dose of sulfated CCK-8 (Sigma, 3×10^-9 M). After obtaining a stable response, the tissues are washed out 3 times rapidly and every 5 to 10 minutes for 1 hour to reestablish a stable baseline.
Compounds are dissolved in dimethylsulfoxide ([…]) followed by a concentration-response curve to sulfated CCK-8 (10^-10 to 10^-6 M) in the presence of the highest dose of the test compound. As a final test, ACH (10 mM) is added to induce maximal contraction. A minimum of three determinations of activity are made for each test compound.

| SMILES | activation at 1 µM [%] | activation at 30 µM [%] |
| --- | --- | --- |
| CC(C)N(C(=O)CN1C(=O)C(C)(CC(=O)Nc2ccccc2N)C(=O)N(c2ccccc2)c2ccccc21)c1ccccc1 (centres unmarked) [Example 9, 2-[3-(2-Amino-phenylcarbamoylmethyl)-3-methyl-2,4-dioxo-5-phenyl-2,3,4,5-tetrahydro-benzo[b][1,4]diazepin-1-yl]-N-isopropyl-N-phenyl acetamide] | 31 | – |
| CC(C)N(C(=O)CN1C(=O)C(C)(Cc2noc(-c3ccccc3)n2)C(=O)N(c2ccccc2)c2ccccc21)c1ccccc1 (centres unmarked) [Example 10, N-Isopropyl-2-[3-methyl-2,4-dioxo-5-phenyl-3-(5-phenyl-[1,2,4]oxadiazol-3-ylmethyl)-2,3,4,5-tetrahydro-benzo[b][1,4]diazepin-1-yl]-N-phenyl acetamide] | 7 | – |
| CC(C)N(C(=O)CN1C(=O)C(C)(CC=Cc2ccccc2)C(=O)N(c2ccccc2)c2ccccc21)c1ccccc1 (centres unmarked) [Example 11, N-Isopropyl-2-[3-methyl-2,4-dioxo-5-phenyl-3-(3-phenyl-allyl)-2,3,4,5-tetrahydro-benzo[b][1,4]diazepin-1-yl]-N-phenyl acetamide] | 10 | – |
| CC(C)N(C(=O)CN1C(=O)C(C)(CCCc2ccccc2)C(=O)N(c2ccccc2)c2ccccc21)c1ccccc1 (centres unmarked) [Example 12, N-Isopropyl-2-[3-methyl-2,4-dioxo-5-phenyl-3-(3-phenyl-propyl)-2,3,4,5-tetrahydro-benzo[b][1,4]diazepin-1-yl]-N-phenyl acetamide] | 19 | – |
| CC(C)N(C(=O)CN1C(=O)C(C)(CC(N)=O)C(=O)N(c2ccccc2)c2ccccc21)c1ccccc1 (centres unmarked) [Example 13, 2-[1-(Isopropyl-phenyl-carbamoylmethyl)-3-methyl-2,4-dioxo-5-phenyl-2,3,4,5-tetrahydro-1H-benzo[b][1,4]diazepine-3-yl]acetamide] | 6 | – |
| COc1ccc(N(C(=O)CN2C(=O)C(C)(CC(=O)Nc3ccccc3)C(=O)N(c3ccccc3)c3ccccc32)C(C)C)cc1 (centres unmarked) [Example 14, N-Isopropyl-N-(4-methoxy-phenyl)-2-(3-methyl-2,4-dioxo-5-phenyl-3-phenylcarbamoylmethyl-2,3,4,5-tetrahydro-benzo[b][1,4]diazepin-1-yl) acetamide] | – | 64 |
| CC(C)N(C(=O)CN1C(=O)C(C)(CCCC(=O)Nc2ccccc2)C(=O)N(c2ccccc2)c2ccccc21)c1ccccc1 (centres unmarked) [Example 15, N-Isopropyl-N-phenyl-2-(3-methyl-2,4-dioxo-5-phenyl-3-phenylcarbamoylpropyl-2,3,4,5-tetrahydro-benzo[b][1,4]diazepin-1-yl) acetamide] | 54 | – |
| CCC1(CC(=O)Nc2ccccc2)C(=O)N(CC(=O)N(c2ccccc2)C(C)C)c2ccccc2N(c2ccccc2)C1=O (centres unmarked) [Example 16, 2-(3-Ethyl-2,4-dioxo-5-phenyl-3-phenylcarbamoylmethyl-2,3,4,5-tetrahydro-benzo[b][1,4]diazepin-1-yl)-N-isopropyl-N-phenyl-acetamide] | – | 54 |
| COc1ccc(N(C(=O)CN2C(=O)C(CC(=O)Nc3ccccc3)C(=O)N(c3ccccc3)c3ccccc32)C(C)C)cc1 (centres unmarked) [Example 17, 2-(2,4-dioxo-5-phenyl-3-phenylcarbamoylmethyl-2,3,4,5-tetrahydro-benzo[b][1,4]diazepin-1-yl)-N-isopropyl-N-(4-methoxy-phenyl)-acetamide] | 48 | 55 |
| CC(C)N(C(=O)CN1C(=O)C(C)(Cc2cc3ccccc3[nH]2)C(=O)N(c2ccccc2)c2ccccc21)c1ccccc1 (centres unmarked) [Example 18, 2-[3-(1H-indol-2-ylmethyl)-3-methyl-2,4-dioxo-5-phenyl-2,3,4,5-tetrahydro-benzo[b][1,4]diazepin-1-yl]-N-isopropyl-N-phenyl acetamide] | – | 3 |
| CC(C)N(C(=O)CN1C(=O)C(C)(Cc2c[nH]c3ccccc23)C(=O)N(c2ccccc2)c2ccccc21)c1ccccc1 (centres unmarked) [Example 19, 2-[3-(1H-indol-3-ylmethyl)-3-methyl-2,4-dioxo-5-phenyl-2,3,4,5-tetrahydro-benzo[b][1,4]diazepin-1-yl]-N-isopropyl-N-phenyl acetamide] | – | 76 |
| COc1ccc(N(C(=O)CN2C(=O)C(Cc3cc4ccccc4[nH]3)(OC)C(=O)N(c3ccccc3)c3ccccc32)C(C)C)cc1 (centres unmarked) [Example 20, 2-[3-(1H-indol-2-ylmethyl)-3-methoxy-2,4-dioxo-5-phenyl-2,3,4,5-tetrahydro-benzo[b][1,4]diazepin-1-yl]-N-isopropyl-N-(4-methoxyphenyl) acetamide] | – | 66 |
| COc1ccc(N(C(=O)CN2C(=O)C(CC(=O)Nc3ccccc3)(OC)C(=O)N(c3ccccc3)c3ccccc32)C(C)C)cc1 (centres unmarked) [Example 21, N-Isopropyl-2-(3-methoxy-2,4-dioxo-5-phenyl-3-phenylcarbamoylmethyl-2,3,4,5-tetrahydro-benzo[b][1,4]diazepin-1-yl)-N-(4-methoxy-phenyl)-acetamide] | 80 | 90 |
| COc1ccc(N(C(=O)CN2C(=O)C(Cc3c[nH]c4ccccc34)C(=O)N(c3ccccc3)c3ccccc32)C(C)C)cc1 (centres unmarked) [Example 22, 2-[3-(1H-indol-3-ylmethyl)-2,4-dioxo-5-phenyl-2,3,4,5-tetrahydro-benzo[b][1,4]diazepin-1-yl]-N-isopropyl-N-(4-methoxy-phenyl) acetamide] | 61 | 71 |
| COc1ccc(N(C(=O)CN2C(=O)C(C)(Cc3c[nH]c4ccccc34)C(=O)N(c3ccccc3)c3ccccc32)C(C)C)cc1 (centres unmarked) [Example 23, 2-[3-(1H-indol-3-ylmethyl)-3-methyl-2,4-dioxo-5-phenyl-2,3,4,5-tetrahydro-benzo[b][1,4]diazepin-1-yl]-N-isopropyl-N-(4-methoxy-phenyl) acetamide] | – | 50 |
| COc1ccc(N(C(=O)CN2C(=O)C(C)(Cc3cn(C)c4ccccc34)C(=O)N(c3ccccc3)c3ccccc32)C(C)C)cc1 (centres unmarked) [Example 24, 2-[3-(N-methyl-indol-3-ylmethyl)-3-methyl-2,4-dioxo-5-phenyl-2,3,4,5-tetrahydro-benzo[b][1,4]diazepin-1-yl]-N-isopropyl-N-(4-methoxy-phenyl) acetamide] | – | 34 |
| COc1ccc(N(C(=O)CN2C(=O)C(C)(CC(=O)Nc3cccc(F)c3)C(=O)N(c3ccccc3)c3ccccc32)C(C)C)cc1 (centres unmarked) [Example 25, N-Isopropyl-N-(4-methoxy-phenyl)-2-[3-(3-fluoro-phenylcarbamoylmethyl)-3-methyl-2,4-dioxo-5-phenyl-2,3,4,5-tetrahydro-benzo[b][1,4]diazepin-1-yl]acetamide] | 88 | – |
| COCC1(CC(=O)Nc2ccccc2)C(=O)N(CC(=O)N(c2ccc(OC)cc2)C(C)C)c2ccccc2N(c2ccccc2)C1=O (centres unmarked) [Example 26, N-Isopropyl-2-(3-methoxymethyl-2,4-dioxo-5-phenyl-3-phenylcarbamoylmethyl-2,3,4,5-tetrahydro-benzo[b][1,4]diazepin-1-yl)-N-(4-methoxy-phenyl)-acetamide] | 91 | – |
| COc1ccc(N(C(=O)CN2C(=O)C(Cc3nn(Cc4ccccc4)c4ccccc34)C(=O)N(c3ccccc3)c3ccccc32)C(C)C)cc1 (centres unmarked) [Example 27, 2-[3-(1-Benzyl-1H-indazol-3-ylmethyl)-2,4-dioxo-5-phenyl-2,3,4,5-tetrahydro-benzo[b][1,4]diazepin-1-yl]-N-isopropyl-N-(4-methoxy-phenyl) acetamide] | – | 40 |
| COc1ccc(N(C(=O)CN2C(=O)C(CN(C)C(=O)c3ccccc3)C(=O)N(c3ccccc3)c3ccccc32)C(C)C)cc1 (centres unmarked) [Example 28, N-{1-[Isopropyl-(4-methoxy-phenyl)-carbamoylmethyl]-2,4-dioxo-5 phenyl-2,3,4,5-tetrahydro-1H-benzo[b][1,4]diazepin-3-ylmethyl}-N-methyl benzamide] | 3 | – |
| COc1ccc(N(C(=O)CN2C(=O)C(CC(=O)O)(CC(=O)Nc3ccccc3)C(=O)N(c3ccccc3)c3ccccc32)C(C)C)cc1 (centres unmarked) [Example 29, {1-[Isopropyl-(4-methoxy-phenyl)-carbamoylmethyl]-2,4-dioxo-5-phenyl-3-phenylcarbamoylmethyl-2,3,4,5-tetrahydro-1H-benzo[b][1,4]diazepin-3-yl}acetic acid] | 65 | 85 |
| COc1ccc(N(C(=O)CN2C(=O)C(C)(Cc3n[nH]c4ccccc34)C(=O)N(c3ccccc3)c3ccccc32)C(C)C)cc1 (centres unmarked) [Example 30, 2-[3-(1H-Indazol-3-ylmethyl)-3-methyl-2,4-dioxo-5-phenyl-2,3,4,5-tetrahydro-benzo[b][1,4]diazepin-1-yl]-N-isopropyl-N-(4-methoxy-phenyl) acetamide] | 75 | 70 |
| COc1ccc(N(C(=O)CN2C(=O)C(Cc3coc4ccccc34)C(=O)N(c3ccccc3)c3ccccc32)C(C)C)cc1 (centres unmarked) [Example 32] | 38 | – |
| COc1ccc(N(C(=O)CN2C(=O)C(C)(Cc3coc4ccccc34)C(=O)N(c3ccccc3)c3ccccc32)C(C)C)cc1 (centres unmarked) [Example 33] | 53 | – |
